Row | melting point | Compound
1 | 150 to 155 °C | CCOCc1nc2c(N)nc(C)c(C)c2n1NCCCS(C)(=O)=O [Example 39, 2-(Ethoxymethyl)-6,7-dimethyl-N^1-[3-(methylsulfonyl)propyl]-1H-imidazo[4,5-c]pyridine-1,4-diamine]
2 | 127 to 131 °C | CCOCc1nc2c(N)nc(C)c(C)c2n1NC1CCN(S(C)(=O)=O)CC1 [Example 40, 2-(Ethoxymethyl)-6,7-dimethyl-N^1-[1-(methylsulfonyl)piperidin-4-yl]-1H-imidazo[4,5-c]pyridine-1,4-diamine]
3 | 186 to 188 °C | CCOCc1nc2c(N)nc(C)c(C)c2n1NCc1ccc(Cl)c(Cl)c1 [Example 45, N^1-(3,4-Dichlorobenzyl)-2-ethoxymethyl-6,7-dimethyl-1H-imidazo[4,5-c]pyridine-1,4-diamine]
4 | 130 to 132 °C | CCOCc1nc2c(N)nc(C)c(C)c2n1NC1CCCC1 [Example 46, N^1-Cyclopentyl-2-ethoxymethyl-6,7-dimethyl-1H-imidazo[4,5-c]pyridine-1,4-diamine]
5 | 254 to 256 °C | Cc1nc(N)c2nc(CO)n(NC3CCCC3)c2c1C [Example 47, (4-Amino-1-cyclopentylamino-6,7-dimethyl-1H-imidazo[4,5-c]pyridin-2-yl)methanol]
6 | 191 to 193 °C | CCc1nc2c(N)nc(C)c(C)c2n1NC1CCOCC1 [Example 48, 2-Ethyl-6,7-dimethyl-N^1-(tetrahydropyran-4-yl)-1H-imidazo[4,5-c]pyridine-1,4-diamine]
7 | 148 to 150 °C | CCOCc1nc2c(N)nc(C)c(C)c2n1NCCCNC(=O)OCC [Example 49]
8 | 190 to 192 °C | Cc1nc(N)c2nc(CCO)n(NC3CCOCC3)c2c1C [Example 50, 2-[4-Amino-6,7-dimethyl-1-(tetrahydropyran-4-yl)amino-1H-imidazo[4,5-c]pyridin-2-yl]ethanol]
9 | 110 to 120 °C | COCCc1nc2c(N)nc(C)c(C)c2n1NC1CCOCC1 [Example 51, 2-(2-Methoxyethyl)-6,7-dimethyl-N^1-(tetrahydropyran-4-yl)-1H-imidazo[4,5-c]pyridine-1,4-diamine]

Second part, the compound before the results:

Row | Compound | melting point
10 | CCOCc1nc2c(N)nc(C)c(C)c2n1NCc1cccnc1 [Example 19, 2-Ethoxymethyl-6,7-dimethyl-N^1-(pyridin-3-yl)methyl-1H-imidazo[4,5-c]pyridine-1,4-diamine] | 147 to 149 °C
11 | Cc1nc(N)c2nc(CO)n(NCc3cccnc3)c2c1C [Example 20, [4-Amino-6,7-dimethyl-1-(pyridin-3-yl)methylamino-1H-imidazo[4,5-c]pyridin-2-yl]methanol] | 258 to 260 °C
12 | CCOCc1nc2c(N)nc(C)c(C)c2n1NCc1ccccc1 [Example 21, N^1-Benzyl-2-ethoxymethyl-6,7-dimethyl-1H-imidazo[4,5-c]pyridine-1,4-diamine] | 149 to 151 °C
13 | Cc1nc(N)c2nc(CO)n(NCc3ccccc3)c2c1C [Example 22, (4-Amino-1-benzylamino-6,7-dimethyl-1H-imidazo[4,5-c]pyridin-2-yl)methanol] | > 250 °C
14 | CCOCc1nc2c(N)nc(C)c(C)c2n1NC1CCC1 [Example 23, N^1-Cyclobutyl-2-ethoxymethyl-6,7-dimethyl-1H-imidazo[4,5-c]pyridine-1,4-diamine] | 139 to 141 °C
15 | Cc1nc(N)c2nc(CO)n(NC3CCC3)c2c1C [Example 24, (4-Amino-1-cyclobutylamino-6,7-dimethyl-1H-imidazo[4,5-c]pyridin-2-yl)methanol] | 211 to 213 °C
16 | CCOCc1nc2c(N)nc(C)c(C)c2n1NC1CCOCC1 [Example 25, 2-Ethoxymethyl-6,7-dimethyl-N^1-(tetrahydropyran-4-yl)-1H-imidazo[4,5-c]pyridine-1,4-diamine] | 120 to 122 °C
17 | Cc1nc(N)c2nc(CO)n(NC3CCOCC3)c2c1C [Example 26, [4-Amino-6,7-dimethyl-1-(tetrahydropyran-4-yl)amino-1H-imidazo[4,5-c]pyridin-2-yl]methanol] | > 250 °C
18 | CCOCc1nc2cnc(C)c(C)c2n1NC1CCOCC1 [Example 27, 2-Ethoxymethyl-6,7-dimethyl-N-(tetrahydropyranyl)-1H-imidazo[4,5-c]pyridin-1-amine] | 94 to 97 °C
19 | Cc1nc(N)c2nc(C)n(NC3CCCCC3)c2c1C [Example 28, N^1-Cyclohexyl-2,6,7-trimethyl-1H-imidazo[4,5-c]pyridine-1,4-diamine] | 242 to 244 °C
20 | CCc1nc2c(N)nc(C)c(C)c2n1NC1CCCCC1 [Example 29, N^1-Cyclohexyl-2-ethyl-6,7-dimethyl-1H-imidazo[4,5-c]pyridine-1,4-diamine] | 190 to 192 °C
21 | Cc1nc(N)c2ncn(NC3CCCCC3)c2c1C [Example 30, N^1-Cyclohexyl-6,7-dimethyl-1H-imidazo[4,5-c]pyridine-1,4-diamine] | 259 to 261 °C
22 | CCCCc1nc2c(N)nc(C)c(C)c2n1NC1CCCCC1 [Example 31, 2-Butyl-N^1-cyclohexyl-6,7-dimethyl-1H-imidazo[4,5-c]pyridine-1,4-diamine] | 160 to 162 °C
23 | Cc1nc(N)c2nc(C)n(NC3CCOCC3)c2c1C [Example 32, 2,6,7-Trimethyl-N^1-(tetrahydropyran-4-yl)-1H-imidazo[4,5-c]pyridine-1,4-diamine] | 240 to 242 °C
24 | CCCc1nc2c(N)nc(C)c(C)c2n1NC1CCCCC1 [Example 33, N^1-Cyclohexyl-6,7-dimethyl-2-propyl-1H-imidazo[4,5-c]pyridine-1,4-diamine] | 177 to 179 °C
25 | CCOCc1nc2c(N)nc3cccnc3c2n1NCc1ccccc1 [Example 34, N^1-Benzyl-2-ethxoymethyl-1H-imidazo[4,5-c][1,5]naphthyridine-1,4-diamine] | 169 to 171 °C
26 | Nc1nc2cccnc2c2c1nc(CO)n2NCc1ccccc1 [Example 35, (4-Amino-1-benzylamino-1H-imidazo[4,5-c][1,5]naphthyridin-2-yl)methanol] | 237 to 239 °C
27 | CCOCc1nc2cnc3cccnc3c2n1NC1CCOCC1 [Example 36, 2-Ethxoymethyl-N-(tetrahydro-2H-pyran-4-yl)-1H-imidazo[4,5-c][1,5]naphthyridin-1-amine] | 130 to 133 °C
28 | CCOCc1nc2c(N)nc3cccnc3c2n1NC1CCOCC1 [Example 37, 2-Ethxoymethyl-N^1-(tetrahydro-2H-pyran-4-yl)-1H-imidazo[4,5-c][1,5]naphthyridine-1,4-diamine] | 191 to 193 °C
29 | OCc1nc2cnc3cccnc3c2n1NC1CCOCC1 [Example 38, [1-(Tetrahydro-2H-pyran-4-yl)amino-1H-imidazo[4,5-c][1,5]naphthyridin-2-yl]methanol] | 203 to 205 °C

— patent publication US20090270443A1, “1-AMINO IMIDAZO-CONTAINING COMPOUNDS AND METHODS” (priority 2004, published 2009)
